{
  "source": "patent US20230218557A1",
  "about": "“A FATTY ACID BASED COMPOSITION FOR TREATMENT AND/OR PREVENTION OF ENVELOPED-VIRUS RELATED INFECTIONS” (priority 2020, published 2023)",
  "key": {"[1]": {"test_system": "SARS-CoV-2 virus (WA1/2020) strain", "format": "cell-based", "conditions": "for antiviral activity (in words): incubated with SARS-CoV-2; for % viral reduction: virus pre-incubated 10 minutes with sample (conc./dilution per Table 2A), diluted four times, added to vero cells, 48/72 hours, supernatant plaque assay"}, "viral particles": {"test_system": "viral particles", "conditions": "electron microscopy; cited from earlier work"}},
  "data": [
    {"molecule": "CC/C=C\\C/C=C\\C/C=C\\CCCCCCCC(=O)O", "note": "[ALA, α-linolenic acid]", "values": [
      {"measurement": "antiviral activity (in words)", "setting": "[1]", "result": "showed antiviral activity"},
      {"measurement": "% viral reduction", "setting": "[1]", "result": 97.13, "unit": "%"}
    ]},
    {"molecule": "CCCCC/C=C\\C/C=C\\CCCCCCCC(=O)O", "note": "[LA, Linoleic acid]", "values": [
      {"measurement": "virucidal effect (in words)", "setting": "viral particles", "result": "lyse and completely disintegrate viral particles"},
      {"measurement": "antiviral activity (in words)", "setting": "[1]", "result": "showed antiviral activity"},
      {"measurement": "% viral reduction", "setting": "[1]", "result": 97.42, "unit": "%"}
    ]},
    {"molecule": "CCCCC/C=C\\C/C=C\\C/C=C\\CCCCC(=O)O", "note": "[GLA, gamma-linolenic acid]", "values": [
      {"measurement": "virucidal effect (in words)", "setting": "viral particles", "result": "lyse and completely disintegrate viral particles"},
      {"measurement": "antiviral activity (in words)", "setting": "[1]", "result": "showed antiviral activity"},
      {"measurement": "% viral reduction", "setting": "[1]", "result": 96.98, "unit": "%"}
    ]},
    {"molecule": "Triton X100 [reference compound]", "values": [
      {"measurement": "% viral reduction", "setting": "[1]", "result": 95.23, "unit": "%"}
    ]}
  ]
}
